The target of experiment [1] is T1, hAPJ receptor (Homo sapiens, UniProt P35414).
T1 construct: expressed in transfected cells; host or cells: HEK293, transient transfection with PEI
T1 sequence (P35414 1-380): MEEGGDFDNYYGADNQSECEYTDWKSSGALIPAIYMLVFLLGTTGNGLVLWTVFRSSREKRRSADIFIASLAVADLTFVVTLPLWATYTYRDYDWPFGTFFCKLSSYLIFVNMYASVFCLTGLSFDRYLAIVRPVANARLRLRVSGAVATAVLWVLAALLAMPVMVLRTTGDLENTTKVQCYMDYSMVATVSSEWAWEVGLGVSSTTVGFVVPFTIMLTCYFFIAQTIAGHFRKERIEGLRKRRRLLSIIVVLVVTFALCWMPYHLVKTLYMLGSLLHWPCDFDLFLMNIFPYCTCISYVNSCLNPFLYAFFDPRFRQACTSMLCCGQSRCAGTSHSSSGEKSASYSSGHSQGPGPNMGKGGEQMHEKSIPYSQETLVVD
As to the kind of experiment: BRET-based β-arrestin2 recruitment assay in HEK293 cells. The format is cell-based. As to the method: (§1) HEK293 cells were cultivated in high glucose DMEM medium having 10% FBS, 100 U/mL penicillin/streptomycin, 2 mM glutamine, and 20 mM HEPES at 37° C. in T175 flasks under humidified chamber at 5% CO2. […] Cells were then washed with phosphate-buffered saline (PBS) and 90 μL Hanks' balanced salt solution was added in each well. Then, cells were stimulated with analogs at concentrations ranging from 10^−5 M to 10^−11 M for 5 min at 37° C. (Gαi1) or for 30 min at room temperature (β-arrestin2). After stimulation, 5 μM of coelanterazine 400A was added to each well and the plate was read using the BRET^2 filter set of a GeniosPro plate reader (Tecan, Austria). The BRET ratio was determined as GFP10em/RlucIIem. Data were plotted and EC50 values were determined using GraphPad Prism 8. Each data point represents the mean±SEM of at least three different experiments each done in triplicate.

Experiment [2] has as its target T1, hAPJ receptor. As to the kind of experiment: BRET-based Gαi1 activation assay in HEK293 cells. The format is cell-based. Here is the method:
as §1
(In BRET a luciferase serves as donor, and the signal depends on an acceptor being close.)

Setting [3] is: HEK293, Table V, read-out: ß-arr2 Emax.
The mark [4] stands for this setting: HEK293, Table V, read-out: Gαi1 Emax.

Numbered stars: 1 amine (or outer) side, 2 acyl side, 3 side chain; on linkers, the order of the positions; unused ones are H or OH. Bridge positions count the residues as written; N and C are the ends. Square brackets hold non-standard residues; d marks the D form. Peptide text beside a SMILES is read from it. * marks the point of attachment. X5 = O=C([C@H](Cc1cc(C2CCCC2)c(OCc2ccccc2)c(C2CCCC2)c1)N[*:1])[*:2]; X1 = O=C([C@H](Cc1ccc(OCc2ccccc2)c(C2CCCC2)c1)N[*:1])[*:2]; Benzoyl(4-Br) = O=C(c1ccc(Br)cc1)*; hArg = N=C(N)NCCCC[C@H](N)C(=O)O; pGlu = O=C1CC[C@@H](C(=O)O)N1; Nle = CCCC[C@H](N)C(=O)O; Bn = c1ccc(C*)cc1 Some results are limits rather than exact numbers.

14 compounds from patent US20240343761A1, “APELINERGIC MACROCYCLES AND USES THEREOF” (priority 2021, published 2024) can be followed below.

As a reminder, the EC50 is the concentration that produces a half-maximal response. A low value points to higher potency in that assay. The Emax is the greatest response seen or fitted, relative to the assay's reference.

Compound `CCCC[C@@H]1NC(=O)[C@@H](NC(=O)[C@H](CCCNC(=N)N)NC(=O)[C@H](CCCNC(=N)N)NC(=O)[C@@H]2CCC(=O)N2)CCC(=O)NCCCC[C@@H](C(=O)N[C@@H](Cc2c[nH]cn2)C(=O)N[C@@H](CO)C(=O)N[C@@H](CCCNC(=N)N)C(=O)N[C@H](C(=O)N2CCC[C@H]2C(=O)N[C@@H](Cc2ccccc2)C(=O)N2CCC[C@H]2C(=O)O)C(C)C)NC(=O)[C@@H]2CCCN2C1=O` [Compound 75, Pyr-R-R-c[E-Nle-P-K]-H-S-R-V-P-F-P] ([pGlu]RRE[Nle]PKHSRVPFP-OH; lactam 4-7) returned a concentration for a half-maximal effect (EC50) in experiment [1] of 2020 ± 479 nM.

As to `CC(C)C[C@@H]1NC(=O)[C@@H]2CCCN2C(=O)[C@@H](NC(=O)[C@H](CO)NC(=O)[C@H](CCCCNC(=N)N)NC(=O)[C@H](CCCNC(=N)N)NC(=O)[C@@H]2CCC(=O)N2)CCC(=O)NCCCC[C@@H](C(=O)N[C@@H](CCCNC(=N)N)C(=O)N[C@H](C(=O)N2CCC[C@H]2C(=O)N[C@@H](Cc2ccccc2)C(=O)N2CCC[C@H]2C(=O)O)C(C)C)NC(=O)[C@H](Cc2c[nH]cn2)NC1=O` [Compound 91, Pyr-R-hR-S-[E-P-L-H-K]-R-V-P-F-P] ([pGlu]R[hArg]SEPLHKRVPFP-OH; lactam 5-9), the EC50 in experiment [1] came to 173 ± 20 nM; in experiment [2] it was 4.3 ± 1.1 nM.

Take `CCCC[C@H](NC(=O)[C@@H]1CCCN1C(=O)[C@@H]1CCCCNC(=O)CC[C@H](NC(=O)[C@H](CC(C)C)NC(=O)[C@H](CCCNC(=N)N)NC(=O)[C@@H]2CCCN2C(=O)[C@H](CCCNC(=N)N)NC(=O)[C@H](CCC(N)=O)NC(=O)[C@H](CCCNC(=N)N)NC(=O)[C@H](CCCNC(=N)N)NC(=O)[C@H](Cc2ccccc2)NC(=O)[C@H](CCCCN)NC(C)=O)C(=O)N[C@@H](Cc2c[nH]cn2)C(=O)N[C@@H](CCCCN)C(=O)N1)C(=O)N1CCC[C@H]1C(=O)N[C@@H](Cc1ccc(OCc2ccccc2)c(C2CCCC2)c1)C(=O)O` [Compound 63, Ac-K-F-R-R-Q-R-P-R-L-[E-H-K-K]-P-Nle-P-cypTyrOBn] (Ac-KFRRQRPRLEHKKP[Nle]P[X1]-OH; lactam 10-13): the EC50 in experiment [1] was 63.6 nM; in experiment [2], 5.48 nM.

On to `CCCC[C@H](NC(=O)[C@@H]1CCC(=O)NCCCC[C@H](N)C(=O)N[C@@H](CCCNC(=N)N)C(=O)N[C@@H](CCCNC(=N)N)C(=O)N1)C(=O)N1CCC[C@H]1C(=O)N[C@@H](CC(C)C)C(=O)N[C@@H](Cc1c[nH]cn1)C(=O)N[C@@H](CO)C(=O)N[C@@H](CCCNC(=N)N)C(=O)N[C@H](C(=O)N1CCC[C@H]1C(=O)N[C@@H](Cc1ccccc1)C(=O)N1CCC[C@H]1C(=O)O)C(C)C` [Compound 72, c[K-R-R-E]-Nle-P-L-H-S-R-V-P-F-P] (H-KRRE[Nle]PLHSRVPFP-OH; lactam 1-4), for which the EC50 is 47 ± 2 nM in experiment [1] and 1.7 ± 0.4 nM in experiment [2].

In experiment [1], `CC(C)C[C@@H]1NC(=O)[C@@H]2CCCN2C(=O)[C@@H](NC(=O)[C@H](CO)NC(=O)[C@H](CCCNC(=N)N)NC(=O)[C@H](CCCNC(=N)N)NC(=O)c2ccc(Br)cc2)CCC(=O)NCCCC[C@@H](C(=O)N[C@@H](CCCNC(=N)N)C(=O)N[C@H](C(=O)N2CCC[C@H]2C(=O)N[C@@H](Cc2ccccc2)C(=O)N2CCC[C@H]2C(=O)O)C(C)C)NC(=O)[C@H](Cc2c[nH]cn2)NC1=O` [Compound 89, 4BrBz-R-R-S-[E-P-L-H-K]-R-V-P-F-P] ({Benzoyl(4-Br)}-RRSEPLHKRVPFP-OH; lactam 4-8) yielded an EC50 of 50 ± 4 nM.

In experiment [1], `CC(C)C[C@@H]1NC(=O)[C@@H]2CCCN2C(=O)[C@@H](NC(=O)[C@H](CO)NC(=O)[C@H](CCCNC(=N)N)NC(=O)[C@H](CCCCNC(=N)N)NC(=O)[C@@H]2CCC(=O)N2)CCC(=O)NCCCC[C@@H](C(=O)N[C@@H](CCCNC(=N)N)C(=O)N[C@H](C(=O)N2CCC[C@H]2C(=O)N[C@@H](Cc2ccccc2)C(=O)N2CCC[C@H]2C(=O)O)C(C)C)NC(=O)[C@H](Cc2c[nH]cn2)NC1=O` [Compound 90, Pyr-hR-R-S-[E-P-L-H-K]-R-V-P-F-P] yielded an EC50 of 394 ± 47 nM.

Turning to `CCCC[C@H](NC(=O)[C@@H]1CCCN1C(=O)CNC(=O)[C@H](CCCCN)NC(=O)[C@@H]1CCNCC=CC[C@H](NC(=O)[C@H](CCCNC(=N)N)NC(=O)[C@@H]2CCC(=O)N2)C(=O)N[C@@H](CCCNC(=N)N)C(=O)N[C@@H](CC(C)C)C(=O)N[C@@H](CO)C(=O)N1)C(=O)N1CCC[C@H]1C(=O)N[C@@H](Cc1ccccc1)C(=O)O` [Compound 18, Pyr-R-c[X-R-L-S-Alb]c-K-G-P-Nle-P-F], the Emax in experiment [1] (setting [3]) came to 86%; in experiment [2] (setting [4]), 100%.

As for `CCCC[C@H](NC(=O)[C@@H]1CCCN1C(=O)[C@@H]1CCCCNC(=O)CC[C@H](NC(=O)[C@H](CC(C)C)NC(=O)[C@H](CCCNC(=N)N)NC(=O)[C@@H]2CCCN2C(=O)[C@H](CCCNC(=N)N)NC(=O)[C@H](CCC(N)=O)NC(=O)[C@H](CCCNC(=N)N)NC(=O)[C@H](CCCNC(=N)N)NC(=O)[C@H](Cc2ccccc2)NC(=O)[C@H](CCCCN)NC(C)=O)C(=O)N[C@@H](Cc2c[nH]cn2)C(=O)N[C@@H](CCCCN)C(=O)N1)C(=O)N1CCC[C@H]1C(=O)N[C@@H](Cc1cc(C2CCCC2)c(OCc2ccccc2)c(C2CCCC2)c1)C(=O)O` [Compound 65, Ac-K-F-R-R-Q-R-P-R-L-[E-H-K-K]-P-Nle-P-dcypTyrOBn] (Ac-KFRRQRPRLEHKKP[Nle]P[X5]-OH; lactam 10-13), in experiment [1], the EC50 is > 10000 nM.

As to `CC(C)C[C@@H]1NC(=O)[C@@H]2CCCN2C(=O)[C@@H](NC(=O)[C@H](CO)NC(=O)[C@H](CCCNC(=N)N)NC(=O)[C@H](CCCNC(=N)N)NC(=O)[C@@H]2CCC(=O)N2)CCC(=O)NCCCC[C@@H](C(=O)N[C@@H](CCCNC(=N)N)C(=O)N[C@H](C(=O)N2CCC[C@H]2C(=O)N[C@@H](Cc2ccccc2)C(=O)N2CCC[C@H]2C(=O)O)C(C)C)NC(=O)[C@H](Cc2c[nH]cn2)NC1=O` [Compound 77, Pyr-R-R-S-c[E-P-L-H-K]-R-V-P-F-P], in experiment [1], the EC50 stood at 247 ± 62 nM.

`CC(C)C[C@@H]1NC(=O)[C@@H]2CCCN2C(=O)[C@@H](NC(=O)[C@H](CO)NC(=O)[C@H](CCCNC(=N)N)NC(=O)[C@H](CCCNC(=N)N)NC(=O)[C@@H]2CCC(=O)N2)CCC(=O)NCCCC[C@@H](C(=O)N[C@@H](CCCNC(=N)N)C(=O)N[C@H](C(=O)N2CCC[C@H]2C(=O)N[C@@H](Cc2ccccc2)C(=O)N2C[C@H](OCc3ccccc3)C[C@H]2C(=O)O)C(C)C)NC(=O)[C@H](Cc2c[nH]cn2)NC1=O` [Compound 93, Pyr-R-R-S-[E-P-L-H-K]-R-V-P-F-Hyp(OBn)]: the EC50 in experiment [1] was 2200 ± 132 nM; in experiment [2], 47 ± 3 nM.

Turning to `CCCC[C@H](NC(=O)[C@@H]1CCCN1C(=O)CNC(=O)[C@H](CCCCN)NC(=O)[C@@H]1CCN(C)CC=CC[C@H](NC(=O)[C@H](CCCNC(=N)N)NC(=O)[C@@H]2CCC(=O)N2)C(=O)N[C@@H](CCCNC(=N)N)C(=O)N[C@@H](CC(C)C)C(=O)N[C@@H](CO)C(=O)N1)C(=O)N1CCC[C@H]1C(=O)N[C@@H](Cc1ccccc1)C(=O)O` [Compound 19, Pyr-R-c[X-R-L-S-Almb]c-K-G-P-Nle-P-F], the values for the Emax in experiment [1] (setting [3]) and in experiment [2] (setting [4]) were 90% and 102%, respectively.

As for `CC(C)C[C@@H]1NC(=O)[C@H](CCCNC(=N)N)NC(=O)[C@@H](N)CC=CC[C@@H](C(=O)N[C@@H](CCCCN)C(=O)NCC(=O)N2CCC[C@H]2C(=O)N[C@H](Cc2ccc(OCc3ccccc3)cc2)C(=O)O)NC(=O)[C@H](CO)NC1=O` [Compound 44, NH2-c[X-R-L-S-X]c-K-G-P-(D-TyrOBn)], the maximal effect (Emax) in experiment [1] (setting [3]) came out at 78%; in experiment [2] (setting [4]), 104%.

For the compound `CCCC[C@H](NC(=O)[C@@H]1CCCN1C(=O)[C@@H]1CCCCNC(=O)CC[C@H](NC(=O)[C@H](CC(C)C)NC(=O)[C@H](CCCNC(=N)N)NC(=O)[C@@H]2CCCN2C(=O)[C@H](CCCNC(=N)N)NC(=O)[C@H](CCC(N)=O)NC(=O)[C@H](CCCNC(=N)N)NC(=O)[C@H](CCCNC(=N)N)NC(=O)[C@H](Cc2ccccc2)NC(=O)[C@H](CCCCN)NC(C)=O)C(=O)N[C@@H](Cc2c[nH]cn2)C(=O)N[C@@H](CCCCN)C(=O)N1)C(=O)N1CCC[C@H]1C(=O)N[C@@H](Cc1ccc(OCc2ccccc2)cc1)C(=O)O` [Compound 66, Ac-K-F-R-R-Q-R-P-R-L-[E-H-K-K]-P-Nle-P-TyrOBn] (Ac-KFRRQRPRLEHKKP[Nle]PY(Bn)-OH; lactam 10-13), the EC50 in experiment [1] is 334 nM.

With `CCCC[C@H](NC(=O)[C@@H]1CCCN1C(=O)CNC(=O)[C@H](CCCCN)NC(=O)[C@@H]1CCN(S(=O)(=O)c2ccccc2[N+](=O)[O-])CC=CC[C@H](NC(=O)[C@H](CCCNC(=N)N)NC(=O)[C@@H]2CCC(=O)N2)C(=O)N[C@@H](CCCNC(=N)N)C(=O)N[C@@H](CC(C)C)C(=O)N[C@@H](CO)C(=O)N1)C(=O)N1CCC[C@H]1C(=O)N[C@@H](Cc1ccccc1)C(=O)O` [Compound 16, Pyr-R-c[X-R-L-S-Alnb]c-K-G-P-Nle-P-F], the Emax in experiment [1] (HEK293, read-out: ß-arr2 Emax) is 98%; in experiment [2] (HEK293, read-out: Gαi1 Emax) it was 102%.
